The values below are quoted from earlier work in EP3124016B1, “ANTIPSORIATIC EMULSION COMPOSITION COMPRISING CEFAZOLIN” (Warszawski Uniwersytet Medyczny, priority 2015, dated 2017).

Counter-ions that a name gives are not always drawn.

For the data set the following is noted: 1% aqueous solution.

Take `Cc1nnc(SCC2=C(C(=O)O)N3C(=O)[C@@H](NC(=O)Cn4cnnn4)[C@H]3SC2)s1` [cefazolin sodium salt]: the “time for which eye drops were stable” value (stored at 4°C) was 42 days. Moreover, the “time for which stability lasted” value (eye drops, storage in room temperature) is reported as “only for a few days”.
